Experimental data published in patent US8664226B2, “Compound having 3-heteroarylpyrimidin-4-(3H)-one structure and pharmaceutical preparation containing same” (Kowa Company, Ltd., priority 2009, dated 2014).

Biological target: T1, angiotensin II type 1 receptor (Oryctolagus cuniculus, UniProt P34976)
T1 construct: By using a specimen of isolated rabbit blood vessels; from tissue; host or cells: rabbit thoracic aorta ring (New Zealand White, male)
T1 sequence (P34976 1-359): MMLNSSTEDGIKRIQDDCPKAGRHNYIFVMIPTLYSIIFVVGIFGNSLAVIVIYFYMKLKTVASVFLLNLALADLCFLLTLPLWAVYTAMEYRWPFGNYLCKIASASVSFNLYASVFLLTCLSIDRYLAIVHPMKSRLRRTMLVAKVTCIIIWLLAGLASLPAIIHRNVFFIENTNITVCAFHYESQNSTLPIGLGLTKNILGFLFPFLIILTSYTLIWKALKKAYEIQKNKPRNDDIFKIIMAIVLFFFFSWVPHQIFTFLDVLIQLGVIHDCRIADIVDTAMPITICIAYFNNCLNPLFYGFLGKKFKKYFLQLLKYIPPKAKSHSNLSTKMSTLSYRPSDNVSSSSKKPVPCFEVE
Experiment: Angiotensin II antagonistic activity in isolated rabbit blood vessels
Details: angiotensin II (10 nM)-induced contraction of rabbit thoracic aorta ring
Method: By using a specimen of isolated rabbit blood vessels, antagonistic activity of the compounds of the invention against angiotensin II type 1 receptor was estimated from a dose-response curve of angiotensin II-induced blood vessel contraction.
During the measurement, the inside temperature of the magnus bath was maintained at 37° C. and the bath was continuously ventilated with a sufficient amount of mixed gas (95% O2 and 5% CO2). The angiotensin II-induced contraction was converted into a relative value (%) that is based on the angiotensin II (10 nM)-induced contraction in the absence of the compounds of each example. From the concentration-response curve obtained therefrom, 50% inhibition concentration (IC50 value) was calculated by using SAS Preclinical Package Ver5.0 (trade name, manufactured by SAS institute Japan Co., Tokyo, Japan), which is a statistical analysis program.

SMILES	IC50 [nM]
CCCCc1nc(C)n(-c2ccccn2)c(=O)c1Cc1ccc(-c2ccccc2-c2nnn[nH]2)cc1 [Example 1, 5-{[2′-(1H-tetrazol-5-yl)biphenyl-4-yl]methyl}-6-butyl-2-methyl-3-(pyridin-2-yl)pyrimidin-4(3H)-one]	2.1
CCCCc1nc(C)n(-c2ncc(OCc3nc(-c4ccc5ccccc5c4)oc3C)cn2)c(=O)c1Cc1ccc(-c2ccccc2-c2nnn[nH]2)cc1 [Example 34, 5-{[2′-(1H-tetrazol-5-yl)biphenyl-4-yl]methyl}-6-butyl-2-methyl-3-{5-{[5-methyl-2-(naphthalen-2-yl)oxazol-4-yl]methoxy}pyrimidin-2-yl}-pyrimidin-4 (3H)-one]	754
CCCCc1nc(C)n(-c2ncc(OCCCCC(=O)N(CC)CC)cn2)c(=O)c1Cc1ccc(-c2ccccc2-c2nnn[nH]2)cc1 [Example 55, 5-{2-{5-{[2′-(1H-tetrazol-5-yl)biphenyl-4-yl]methyl}-4-butyl-2-methyl-6-oxopyrimidin-1(6H)-yl}pyrimidin-5-yloxy}-N,N-diethylpentanamide]	< 100
CCCCc1nc(C)n(-c2ncn(C)n2)c(=O)c1Cc1ccc(-c2ccccc2-c2nnn[nH]2)cc1 [Example 65, 5-{[2′-(1H-tetrazol-5-yl)biphenyl-4-yl]methyl}-6-butyl-2-methyl-3-(1-methyl-1H-1,2,4-triazol-3-yl)pyrimidin-4 (3H)-one]	23
CCCCc1nc(C)n(-c2ncc(OCC(=O)OCC)cn2)c(=O)c1Cc1ccc(-c2ccccc2-c2nnn[nH]2)cc1 [Example 37]	25.2
CCCCc1nc(C)n(-c2ncc(OCC(=O)N(CC)CC)cn2)c(=O)c1Cc1ccc(-c2ccccc2-c2nnn[nH]2)cc1 [Example 41, 2-{2-{5-{[2′-(1H-tetrazol-5-yl)biphenyl-4-yl]methyl}-4-butyl-2-methyl-6-oxopyrimidin-1(6H)-yl}pyrimidin-5-yloxy}-N,N-diethylacetamide]	8.7
CCCCc1nc(C)n(-c2ncc(OCc3nc(-c4ccc(Br)o4)oc3C)cn2)c(=O)c1Cc1ccc(-c2ccccc2-c2nnn[nH]2)cc1 [Example 32, 5-{[2′-(1H-tetrazol-5-yl)biphenyl-4-yl]methyl}-3-{5-{[2-(5-bromofuran-2-yl)-5-methyloxazol-4-yl]methoxy}pyrimidin-2-yl}-6-butyl-2-methylpyrimidin-4 (3H)-one]	428
CCCCc1nc(C)n(-c2ncccn2)c(=O)c1Cc1ccc(-c2ccccc2-c2nnn[nH]2)cc1 [Example 17, 5-{[2′-(1H-tetrazol-5-yl)biphenyl-4-yl]methyl}-6-butyl-2-methyl-3-(pyrimidin-2-yl)pyrimidin-4 (3H)-one]	9.2
CCCCc1nc(C)n(-c2ncc(OCCc3nc(-c4ccccc4)oc3C)cn2)c(=O)c1Cc1ccc(-c2ccccc2-c2nnn[nH]2)cc1 [Example 35, 5-{[2′-(1H-tetrazol-5-yl)biphenyl-4-yl]methyl}-6-butyl-2-methyl-3-{5-[2-(5-methyl-2-phenyloxazol-4-yl)ethoxy]pyrimidin-2-yl}pyrimidin-4 (3H)-one]	347
CCCCc1nc(C)n(-c2ccc([N+](=O)[O-])cn2)c(=O)c1Cc1ccc(-c2ccccc2-c2nnn[nH]2)cc1 [Example 14, 5-{[2′-(1H-tetrazol-5-yl)biphenyl-4-yl]methyl}-6-butyl-2-methyl-3-(5-nitropyridin-2-yl)pyrimidin-4 (3H)-one]	546
CCCCc1nc(C)n(-c2ncc(OC(Cc3ccccc3)C(=O)O)cn2)c(=O)c1Cc1ccc(-c2ccccc2-c2nnn[nH]2)cc1 (centres unmarked) [Example 43, 2-{2-{5-{[2′-(1H-tetrazol-5-yl)biphenyl-4-yl]methyl}-4-butyl-2-methyl-6-oxopyrimidin-1(6H)-yl}pyrimidin-5-yloxy}-3-phenylpropionic acid]	5.5
CCCCc1nc(C)n(-c2ncc(OCCS(C)(=O)=O)cn2)c(=O)c1Cc1ccc(-c2ccccc2-c2nnn[nH]2)cc1 [Example 27, 5-{[2′-(1H-tetrazol-5-yl)biphenyl-4-yl]methyl}-6-butyl-2-methyl-3-{5-[2-(methylsulfonyl)ethoxy]pyrimidin-2-yl}pyrimidin-4 (3H)-one]	5
CCCCc1nc(C)n(-c2cccc(C(F)(F)F)n2)c(=O)c1Cc1ccc(-c2ccccc2-c2nnn[nH]2)cc1 [Example 12, 5-{[2′-(1H-tetrazol-5-yl)biphenyl-4-yl]methyl}-6-butyl-2-methyl-3-[6-(trifluoromethyl)pyridin-2-yl]pyrimidin-4(3H)-one]	230
CCCCc1nc(C)n(-c2nc(Cl)cc(Cl)n2)c(=O)c1Cc1ccc(-c2ccccc2-c2nnn[nH]2)cc1 [Example 30, 5-{[2′-(1H-tetrazol-5-yl)biphenyl-4-yl]methyl}-6-butyl-3-(4,6-dichloropyrimidin-2-yl)-2-methylpyrimidin-4 (3H)-one]	20
CCCCc1nc(C)n(-c2ncccc2C(F)(F)F)c(=O)c1Cc1ccc(-c2ccccc2-c2nnn[nH]2)cc1 [Example 9, 5-{[2′-(1H-tetrazol-5-yl)biphenyl-4-yl]methyl}-6-butyl-2-methyl-3-[3-(trifluoromethyl)pyridin-2-yl]pyrimidin-4(3H)-one]	14
CCCCc1nc(C)n(-c2ncc(OC)cn2)c(=O)c1Cc1ccc(-c2ccccc2-c2nnn[nH]2)cc1 [Example 18, 5-{[2′-(1H-tetrazol-5-yl)biphenyl-4-yl]methyl}-6-butyl-3-(5-methoxypyrimidin-2-yl)-2-methylpyrimidin-4 (3H)-one]	2.7
CCCCc1nc(C)n(-c2ncc(OCC(=O)O)cn2)c(=O)c1Cc1ccc(-c2ccccc2-c2nnn[nH]2)cc1 [Example 38, 2-{2-{5-{[2′-(1H-tetrazol-5-yl)biphenyl-4-yl]methyl}-4-butyl-2-methyl-6-oxopyrimidin-1(6H)-yl}pyrimidin-5-yloxy}acetic acid]	6.5

Second part, the compound after the results:

IC50 [nM]	SMILES
242	CCCCc1nc(C)n(-c2ncc(OCCCC(=O)OCC)cn2)c(=O)c1Cc1ccc(-c2ccccc2-c2nnn[nH]2)cc1 [Example 45, ethyl 4-{2-{5-{[2′-(1H-tetrazol-5-yl)biphenyl-4-yl]methyl}-4-butyl-2-methyl-6-oxopyrimidin-1(6H)-yl}pyrimidin-5-yloxy}butanoate]
24	CCCCc1nc(C)n(-c2ncc(OCCCO)cn2)c(=O)c1Cc1ccc(-c2ccccc2-c2nnn[nH]2)cc1 [Example 25, 5-{[2′-(1H-tetrazol-5-yl)biphenyl-4-yl]methyl}-6-butyl-3-[5-(3-hydroxypropoxy)pyrimidin-2-yl]-2-methylpyrimidin-4 (3H)-one]
8.5	CCCCc1nc(C)n(-c2ncc(OCCCCC(N)=O)cn2)c(=O)c1Cc1ccc(-c2ccccc2-c2nnn[nH]2)cc1 [Example 53, 5-{2-{5-{[2′-(1H-tetrazol-5-yl)biphenyl-4-yl]methyl}-4-butyl-2-methyl-6-oxopyrimidin-1(6H)-yl}pyrimidin-5-yloxy}pentanamide]
9.9	CCCCc1nc(C)n(-c2ncc(OCCCC(=O)NC)cn2)c(=O)c1Cc1ccc(-c2ccccc2-c2nnn[nH]2)cc1 [Example 48, 4-{2-{5-{[2′-(1H-tetrazol-5-yl)biphenyl-4-yl]methyl}-4-butyl-2-methyl-6-oxopyrimidin-1(6H)-yl}pyrimidin-5-yloxy}-N-methylbutanamide]
25	CCCCc1nc(C)n(-c2ncc(OCCCCC(=O)NCC)cn2)c(=O)c1Cc1ccc(-c2ccccc2-c2nnn[nH]2)cc1 [Example 54, 5-{2-{5-{[2′-(1H-tetrazol-5-yl)biphenyl-4-yl]methyl}-4-butyl-2-methyl-6-oxopyrimidin-1(6H)-yl}pyrimidin-5-yloxy}-N-ethylpentanamide]
4.3	CCCCc1nc(C)n(-c2ncc(OCCCC(=O)O)cn2)c(=O)c1Cc1ccc(-c2ccccc2-c2nnn[nH]2)cc1 [Example 46, 4-{2-{5-{[2′-(1H-tetrazol-5-yl)biphenyl-4-yl]methyl}-4-butyl-2-methyl-6-oxopyrimidin-1(6H)-yl}pyrimidin-5-yloxy}butanoic acid]
5.8	CCCCc1nc(C)n(-c2ncc(OCCCC(=O)NC(C)C)cn2)c(=O)c1Cc1ccc(-c2ccccc2-c2nnn[nH]2)cc1 [Example 51, 4-{2-{5-{[2′-(1H-tetrazol-5-yl)biphenyl-4-yl]methyl}-4-butyl-2-methyl-6-oxopyrimidin-1(6H)-yl}pyrimidin-5-yloxy}-N-isopropylbutanamide]
2.4	CCCCc1nc(C)n(-c2ncc(OCCCNC(C)=O)cn2)c(=O)c1Cc1ccc(-c2ccccc2-c2nnn[nH]2)cc1 [Example 56, N-{3-{2-{5-{[2′-(1H-tetrazol-5-yl)biphenyl-4-yl]methyl}-4-butyl-2-methyl-6-oxopyrimidin-1 (6H)-yl}pyrimidin-5-yloxy}propyl}acetamide]
5.9	CCCCc1nc(C)n(-c2ncc(OCC(=O)NCC)cn2)c(=O)c1Cc1ccc(-c2ccccc2-c2nnn[nH]2)cc1 [Example 40, 2-{2-{5-{[2′-(1H-tetrazol-5-yl)biphenyl-4-yl]methyl}-4-butyl-2-methyl-6-oxopyrimidin-1(6H)-yl}pyrimidin-5-yloxy}-N-ethylacetamide]
